This is an account of results in US20260217646A1, “SPERMINE DERIVATIVE AND THERAPEUTIC USE THEREOF FOR DISEASES” (Institute of Basic Medical Sciences, Chinese Academy of …, priority 2022, published 2026).

For experiment [1], the system named is ISG promoter in RAW264.7 cells. As to the kind of experiment: ISG promoter-reporter (luciferase) assay in RAW264.7 cells under mIFN-β stimulation. The following applies: 10 μM SD1 pretreatment 3 hours; mIFN-β 1 ng/ml for 7 hours; luciferase in supernatant (FIG. 1A). Format: cell-based, mouse. The procedure:
The RAW264.7 cell line with ISG promoter-reporter gene was purchased from Invivogen and cultured in DMEM containing 10% fetal bovine serum (FBS). The cells were pretreated with 10 μM SD1 for 3 hours. A concentrated solution of the above-mentioned SD1 was freshly formulated in DMSO at a concentration of 20 mM before each use, and subsequently diluted as needed. Afterwards, the cells were stimulated with recombinant mouse interferon-beta (mIFN-β) at a dose of 1 ng/ml for 7 hours, and the cell culture supernatant was obtained. Meanwhile, the luciferase substrate powder was dissolved in 25 ml of deionized water under dark conditions, aliquoted, and stored at −80° C. for preparation of the luciferase substrate. 20 μl of the culture supernatant was transferred to a Luciferase specific 96-well ELISA plate, and detected using Thermo VARIOSKAN FLASH microplate-reader (FIG. 1A).

For experiment [2], the system named is interferon-stimulated genes (ISGs) Ifit1 and Mx1. As to the kind of experiment: qPCR of interferon-stimulated gene mRNAs in mouse primary peritoneal macrophages after mIFN-β stimulation. In kind it is cell-based. As to conditions: 10 μM SD1 pretreatment 3 hours, mIFN-β 500 μg/ml for 3 hours, qPCR (FIG. 1B). As for the experimental part: 2 ml of 3% mercaptoacetate (dissolved in double distilled water at a ratio in % by m/v, and then subjected to high-pressure sterilization treatment) was injected into C57BL/6 mice (6-8 weeks old, male) intraperitoneally. After 3 days, mouse primary peritoneal macrophages (PMs) were isolated from the C57BL/6 mice and cultured in endotoxin-free high-glucose DMEM medium containing 10% FBS.
The next day, the medium was replaced by fresh complete medium, and the cells were pretreated with 10 μM SD1 for 3 hours. For the control group cells (at a dose of 0), an equal volume of DMSO was added to the medium. Afterwards, the cells were stimulated with mIFN-β (at a dose of 500 μg/ml) for 3 hours, and RNAs were subsequently extracted for reverse transcription. The contents of mRNAs (including Ifit1 and Mx1) of interferon-stimulated genes (ISGs) were detected and analyzed by fluorescence quantitative PCR (qPCR) method using commercial primers and conditions recommended by manufacturers (FIG. 1B).

Experiment [3] relates to JAK-STAT signaling pathway (IFN-β mediated). As to the kind of experiment: Western blot of type I interferon signaling pathway activation in mouse primary peritoneal macrophages stimulated with mIFN-β. In kind it is cell-based. As to conditions: 10 μM SD1 pretreatment 3 hours, mIFN-β 500 μg/ml for different time periods, Western blot (FIG. 2A). The procedure: PMs were obtained using the method as described in Example 2 and cultured in endotoxin-free high-glucose DMEM medium containing 10% FBS. The cells were pretreated with 10 μM SD1 for 3 hours. For the control group cells (at a dose of 0), an equal volume of DMSO was added to the medium. Afterwards, the cells were stimulated with mIFN-β (at a dose of 500 μg/ml) for different time periods. Subsequently, total cellular proteins were extracted, and the activation of the type I interferon signaling pathway was detected using Western blot (FIG. 2A).

Experiment [4] has as its system JAK-STAT signaling pathway (IL-2 mediated). Nature of the experiment: Western blot of signaling pathway activation in mouse spleen cells stimulated with IL-2. In kind it is cell-based. As to conditions: 10 μM SD1 pretreatment 3 hours, IL-2 10 ng/ml for different time periods, Western blot (FIG. 2B). The procedure:
Mouse spleen single cells were isolated from spleens of the male mice 6-8 weeks old, and the cells freshly obtained were cultured in RPMI1640 medium containing 10% FBS, non-essential amino acids, and β-mercaptoethanol. The cells were pretreated with 10 μM SD1 for 3 hours. For the control group cells (at a dose of 0), an equal volume of DMSO was added to the medium. Subsequently, the cells were stimulated with 10 ng/ml recombinant mouse interleukin-2 (IL-2) for different time periods. The cells were collected, total cellular proteins were extracted, and the activation of the type I interferon signaling pathway was detected using Western blot (FIG. 2B).

The subject of experiment [5] is ISG genes in peripheral blood cells of SLE model mice. Nature of the experiment: ISG expression in peripheral blood cells of pristane-induced SLE model mice. Format: in vivo, mouse. The following applies: C57 female mice; SD1 10 mg/kg intraperitoneal once a day for 5 days before pristane; blood on days 4 and 6 (FIG. 3A to 3C). The text has this:
Lupus-like symptoms similar to those in human patients were induced in mice by the hydrocarbon compound pristane (also referred as norphytane, 2,6,10,14-tetramethylpentadecane) (Zhuang et al., Animal Models of Interferon Signature Positive Lupus. Front Immunol. 2015. 6: p. 291; Nacionales, D. C et al. (2006). Type I interferon production by tertiary lymphoid tissue developing in response to 2,6,10,14-tetramethyl-pentadecane (pristane). The American journal of pathology 168, 1227-1240; Reeves, W. H et al. (2009). Induction of autoimmunity by pristane and other naturally occurring hydrocarbons. Trends Immunol. 30, 455-464). […] It is a recognized model that is able to simulate the overexpression of type I interferon in SLE patients, which can aid in elucidating the pathogenesis of SLE and finding therapeutic targets.
Firstly, C57 female mice were pretreated by intraperitoneal injection of PBS and SD1 (10 mg/kg, once a day, for 5 consecutive days). Subsequently, SLE mice were induced by intraperitoneal injection of pristane (500 μl/mouse). On days 4 and 6 after the injection of pristane, blood was collected from the eye-fundus vascular plexus, and total RNA was obtained from the peripheral blood by using Trizol to detect the effect of spermine on the early type I interferon effect of pristane-induced mice.

The subject of experiment [6] is Human T-lymphocytic leukemia Jurkat cells (IL-2 secretion). As to the kind of experiment: IL-2 ELISA in PMA/ionomycin-activated Jurkat cells. Format: cell-based. The following applies: 10 μM SD1 pretreatment 3 hours; PMA 50 ng/ml and ionomycin for 24 hours; ELISA (FIG. 4A). The procedure: Human T-lymphocytic leukemia Jurkat cells were cultured in RPMI1640 medium containing 10% FBS. The cells were pretreated with SD1 at a dose of 10 μM for 3 hours. For the control group cells (at a dose of 0), an equal volume of DMSO was added to the medium. Subsequently, the cells were continued to be stimulated with phorbol ester (PMA, 50 ng/ml) and ionomycin ([…]) for 24 hours. The cell culture supernatant was collected, and the level of IL-2 was detected using enzyme linked immunosorbent assay (ELISA) (FIG. 4A).

For experiment [7], the system named is NFAT. Nature of the experiment: Jurkat-Lucia NFAT reporter gene assay. Format: cell-based, human. As to conditions: Jurkat-Lucia NFAT cells; 10 μM SD1 pretreatment 3 hours; PMA 50 ng/ml and ionomycin 300 ng/ml for 24 hours (FIG. 4B). As for the experimental part:
Jurkat-Lucia NFAT reporter cell line was purchased from invivogen and cultured in RPMI1640 medium containing 10% FBS. The cells were pretreated with 10 μM SD1 for 3 hours. For the control group cells (at a dose of 0), an equal volume of DMSO was added to the medium. Subsequently, PMA (50 ng/ml) and ionomycin (300 ng/ml) were used to stimulate for 24 hours. The cell culture supernatant was obtained. Meanwhile, the luciferase substrate powder was dissolved in 25 ml of deionized water under dark conditions, aliquoted and stored at −80° C. for the preparation of the luciferase substrate. 20 μl of the culture supernatant was transferred to a Luciferase specific 96-well ELISA plate, and detected using Thermo VARIOSKAN FLASH microplate-reader (FIG. 4B).

Molecules are shown by their SMILES.

Turning to `CC(C(=O)NCCCNCCCCNCCCNC(=O)C(C)(c1ccccc1)c1ccccc1)(c1ccccc1)c1ccccc1` [SD1], the “activity of ISG promoter in RAW264.7 cells” value in experiment [1] is recorded as “effectively inhibit”. In addition, in experiment [2], the “expression of Ifit1 mRNA downstream of type I interferon” value is “reduce” and the “expression of Mx1 mRNA downstream of type I interferon” value is “reduce”. Moreover, the “activation of the JAK-STAT signaling pathway mediated by IFN-β (levels of p-JAK1, p-TYK2, p-STAT1/2)” value in experiment [3] was “effectively inhibit”. Besides, in experiment [4], the “activation of the JAK-STAT signaling pathway mediated by IL-2 (levels of p-JAK1, p-TYK2, p-STAT1/2)” value is on record as “effectively inhibit”. In addition, the “ISG expression (Ifit1, Isg15, Rsad2) in peripheral blood cells of SLE model mice” value in experiment [5] is reported as “inhibit”. In addition, the “IL-2 secretion level of activated Jurkat cells” value in experiment [6] was “effectively inhibit”. For the same compound, the “transcriptional activity of NFAT (reporter gene activity)” value in experiment [7] was “effectively inhibits”.
